According to patent US8957108B2, “Use of 5,6-dimethylxanthenone-4-acetic acid as an antiviral agent” (University of Maryland, Baltimore, priority 2006, dated 2015):

Test system: C57BL/6J macrophages
[1] = DMXAA 3 h vs unstimulated wild-type cells
[2] = ratio of fold change, wild-type vs IFN-β-deficient cells

## Cc1ccc2c(=O)c3cccc(CC(=O)O)c3oc2c1C [DMXAA, 5,6-dimethylxanthenone-4-acetic acid]
  CYP1A2 Fold Change: BL/6: −7.0 fold
  CYP1A2 WT/KO: 1.8
  CYP1B1 Fold Change: BL/6: −44.3 fold
  CYP1B1 WT/KO: 7.5
3 h, vs medium-treated cells
  number of genes down-regulated ≧3-fold: 26 genes
  number of genes up-regulated ≧3-fold: 110 genes
[1]
  2310043N10RIK Fold Change: BL/6: −7.1 fold
  5830484A20RIK Fold Change: BL/6: 5.7 fold
  ABCB1 Fold Change: BL/6: 7.9 fold
  ABL1 Fold Change: BL/6: −8.4 fold
  ABLIM1 Fold Change: BL/6: −9.7 fold
  ACVR1B Fold Change: BL/6: −4.5 fold
  ADRB2 Fold Change: BL/6: −3.2 fold
  AFTIPHILIN Fold Change: BL/6: 3.5 fold
  AKAP12 Fold Change: BL/6: 3.2 fold
  AMPD3 Fold Change: BL/6: −3.9 fold
  AP2A2 Fold Change: BL/6: −10.1 fold
  APBB1IP Fold Change: BL/6: −3.9 fold
  APOBEC3F Fold Change: BL/6: 3.5 fold
  ARHGEF3 Fold Change: BL/6: 4.2 fold
  ARID3A Fold Change: BL/6: −4.1 fold
  ARL4C Fold Change: BL/6: 5.7 fold
  ASF1A Fold Change: BL/6: 3.7 fold
  ATRX Fold Change: BL/6: −4.2 fold
  B3GAT3 Fold Change: BL/6: −9.0 fold
  BACE1 Fold Change: BL/6: −11.5 fold
  BAMBI Fold Change: BL/6: 4.0 fold
  BCL2 Fold Change: BL/6: −7.5 fold
  BCL2L1 Fold Change: BL/6: −14.0 fold
  BHLHB2 Fold Change: BL/6: −3.8 fold
  BID Fold Change: BL/6: 3.2 fold
  C8ORF4 Fold Change: BL/6: −35.4 fold
  C9ORF26 Fold Change: BL/6: 9.1 fold
  CCL2 Fold Change: BL/6: 125.6 fold
  CCL3 Fold Change: BL/6: 5.6 fold
  CCL4 Fold Change: BL/6: 15.1 fold
  CCL5 Fold Change: BL/6: 5.3 fold
  CCL7 Fold Change: BL/6: 9.6 fold
  CCL13 Fold Change: BL/6: 16.8 fold
  CCND2 Fold Change: BL/6: 6.4 fold
  CCNE1 Fold Change: BL/6: 3.2 fold
  CCNF Fold Change: BL/6: −10.6 fold
  CCRN4L Fold Change: BL/6: 5.7 fold
  CD37 Fold Change: BL/6: −5.2 fold
  CD40 Fold Change: BL/6: 10.3 fold
  CD86 Fold Change: BL/6: 11.1 fold
  CD274 Fold Change: BL/6: 6.0 fold
  CDC6 Fold Change: BL/6: 3.8 fold
  CDC7 Fold Change: BL/6: −3.4 fold
  CDC37L1 Fold Change: BL/6: −3.8 fold
  CDKN1A Fold Change: BL/6: 3.1 fold
  CEBPB Fold Change: BL/6: −3.3 fold
  CITED2 Fold Change: BL/6: 6.8 fold
  CLCA1 Fold Change: BL/6: −4.8 fold
  CNR2 Fold Change: BL/6: −9.1 fold
  CREBBP Fold Change: BL/6: −4.5 fold
  CXCL10 Fold Change: BL/6: 69.1 fold
  DAXX Fold Change: BL/6: 7.9 fold
  DSCR1 Fold Change: BL/6: 3.4 fold
  FGD6 Fold Change: BL/6: 3.0 fold
  FGL2 Fold Change: BL/6: 10.6 fold
  GBP2 Fold Change: BL/6: 4.8 fold
  GBP4 Fold Change: BL/6: 7.5 fold
  GBP6 Fold Change: BL/6: 10.8 fold
  GYPC Fold Change: BL/6: 5.9 fold
  IFI16 Fold Change: BL/6: 4.3 fold
  IFI35 Fold Change: BL/6: 3.6 fold
  IFI203 Fold Change: BL/6: 21.9 fold
  IFI205 Fold Change: BL/6: 6.4 fold
  IFIH1 Fold Change: BL/6: 10.1 fold
  IFIT1 Fold Change: BL/6: 33.5 fold
  IFIT2 Fold Change: BL/6: 27.1 fold
  IFIT3 Fold Change: BL/6: 32.2 fold
  IFNA5 Fold Change: BL/6: 32.4 fold
  IFNA6 Fold Change: BL/6: 77.7 fold
  IFNB1 Fold Change: BL/6: 194.1 fold
  IFNG Fold Change: BL/6: 46.5 fold
  IGTP Fold Change: BL/6: 13.7 fold
  IIGP1 Fold Change: BL/6: 21.9 fold
  IL6 Fold Change: BL/6: 564.6 fold
  IL12B Fold Change: BL/6: 4.4 fold
  IL15 Fold Change: BL/6: 7.2 fold
  IL15RA Fold Change: BL/6: 14.9 fold
  IRF1 Fold Change: BL/6: 6.9 fold
  IRF2 Fold Change: BL/6: 4.1 fold
  IRGM Fold Change: BL/6: 6.6 fold
  ISG20 Fold Change: BL/6: 20.9 fold
  KATNA1 Fold Change: BL/6: 3.2 fold
  LGP2 Fold Change: BL/6: 6.4 fold
  LHX2 Fold Change: BL/6: 92.1 fold
  LOC129607 Fold Change: BL/6: 58.9 fold
  MAFK Fold Change: BL/6: 4.7 fold
  MARCH5 Fold Change: BL/6: 4.7 fold
  MOV10 Fold Change: BL/6: 4.2 fold
  MX1 Fold Change: BL/6: 191.4 fold
  MX2 Fold Change: BL/6: 85.3 fold
  NMI Fold Change: BL/6: 4.5 fold
  NP Fold Change: BL/6: 4.1 fold
  NT5C3 Fold Change: BL/6: 6.4 fold
  OAS1B Fold Change: BL/6: 12.7 fold
  OASL Fold Change: BL/6: 35.6 fold
  P4HA1 Fold Change: BL/6: 4.3 fold
  P8 Fold Change: BL/6: 3.7 fold
  PARP9 Fold Change: BL/6: 4.0 fold
  PELI1 Fold Change: BL/6: 5.9 fold
  PGF Fold Change: BL/6: 25.3 fold
  PLAU Fold Change: BL/6: 3.9 fold
  PPP1R15A Fold Change: BL/6: 5.3 fold
  PTX3 Fold Change: BL/6: 5.3 fold
  PVRL2 Fold Change: BL/6: 6.4 fold
  PVRL4 Fold Change: BL/6: 9.0 fold
  REL Fold Change: BL/6: 3.1 fold
  RGC32 Fold Change: BL/6: 8.7 fold
  RIPK2 Fold Change: BL/6: 3.2 fold
  RSAD2 Fold Change: BL/6: 15.5 fold
  SAP30 Fold Change: BL/6: 3.9 fold
  SAV1 Fold Change: BL/6: 3.2 fold
  SDC4 Fold Change: BL/6: 3.9 fold
  SECTM1 Fold Change: BL/6: 17.7 fold
  SLC7A2 Fold Change: BL/6: 3.6 fold
  SOAT1 Fold Change: BL/6: 3.6 fold
  SOCS1 Fold Change: BL/6: 57.5 fold
  STAT2 Fold Change: BL/6: 3.9 fold
  TGTP Fold Change: BL/6: 60.2 fold
  TLK2 Fold Change: BL/6: 4.2 fold
  TLR3 Fold Change: BL/6: 8.8 fold
  TMOD3 Fold Change: BL/6: 3.4 fold
  TNF Fold Change: BL/6: 6.9 fold
  TNFRSF11B Fold Change: BL/6: 90.5 fold
  TNFSF9 Fold Change: BL/6: 5.1 fold
  TOR1AIP1 Fold Change: BL/6: 3.1 fold
  TPST1 Fold Change: BL/6: 6.7 fold
  TREX1 Fold Change: BL/6: 10.2 fold
  TRIM21 Fold Change: BL/6: 8.4 fold
  TRIM25 Fold Change: BL/6: 4.2 fold
  TRIM34 Fold Change: BL/6: 3.3 fold
  USP18 Fold Change: BL/6: 11.6 fold
  VCAM1 Fold Change: BL/6: 3.4 fold
  ZBP1 Fold Change: BL/6: 15.4 fold
  ZNF313 Fold Change: BL/6: 3.2 fold
Of the 136 genes, 3-fold difference wild-type vs IFN-β−/−
  number of modulated genes that are IFN-β-dependent: 77 genes
Of ˜14,000 genes analyzed, 3 h, vs medium-treated cells
  number of genes with ≧3-fold change in expression: 136 genes
[2]
  2310043N10RIK WT/KO: 3.2
  5830484A20RIK WT/KO: 1.4
  ABCB1 WT/KO: 1.1
  ABL1 WT/KO: 5.6
  ABLIM1 WT/KO: 7.1
  ACVR1B WT/KO: 1.9
  ADRB2 WT/KO: 1.9
  AFTIPHILIN WT/KO: 3.0
  AKAP12 WT/KO: 2.2
  AMPD3 WT/KO: 1.5
  AP2A2 WT/KO: 1.1
  APBB1IP WT/KO: 2.2
  APOBEC3F WT/KO: 2.5
  ARHGEF3 WT/KO: 2.1
  ARID3A WT/KO: 1.6
  ARL4C WT/KO: 1.0
  ASF1A WT/KO: 1.8
  ATRX WT/KO: 1.6
  B3GAT3 WT/KO: 5.5
  BACE1 WT/KO: 3.2
  BAMBI WT/KO: 2.7
  BCL2L1 WT/KO: 6.0
  BCL2 WT/KO: 5.4
  BHLHB2 WT/KO: 3.0
  BID WT/KO: 1.1
  C8ORF4 WT/KO: 8.7
  C9ORF26 WT/KO: 2.1
  CCL2 WT/KO: 21.7
  CCL3 WT/KO: 4.1
  CCL4 WT/KO: 1.9
  CCL5 WT/KO: 1.4
  CCL7 WT/KO: 3.2
  CCL13 WT/KO: 2.9
  CCND2 WT/KO: 3.2
  CCNE1 WT/KO: 1.1
  CCNF WT/KO: 4.4
  CCRN4L WT/KO: 3.6
  CD37 WT/KO: 4.7
  CD40 WT/KO: 7.9
  CD86 WT/KO: 1.8
  CD274 WT/KO: 5.9
  CDC6 WT/KO: 1.2
  CDC7 WT/KO: 2.2
  CDC37L1 WT/KO: 1.7
  CDKN1A WT/KO: 2.7
  CEBPB WT/KO: 1.7
  CITED2 WT/KO: 4.6
  CLCA1 WT/KO: 2.5
  CNR2 WT/KO: 4.0
  CREBBP WT/KO: 0.7
  CXCL10 WT/KO: 3.3
  DAXX WT/KO: 4.9
  DSCR1 WT/KO: 1.3
  FGD6 WT/KO: 1.5
  FGL2 WT/KO: 2.9
  GBP2 WT/KO: 3.1
  GBP4 WT/KO: 1.6
  GBP6 WT/KO: 1.6
  GYPC WT/KO: 1.3
  IFI16 WT/KO: 1.6
  IFI35 WT/KO: 3.3
  IFI203 WT/KO: 6.4
  IFI205 WT/KO: 3.5
  IFIH1 WT/KO: 1.4
  IFIT1 WT/KO: 1.5
  IFIT2 WT/KO: 1.9
  IFIT3 WT/KO: 3.1
  IFNA5 WT/KO: 12.9
  IFNA6 WT/KO: 8.6
  IFNB1 WT/KO: 178.6
  IFNG WT/KO: 0.8
  IGTP WT/KO: 11.2
  IIGP1 WT/KO: 18.7
  IL6 WT/KO: 41.8
  IL12B WT/KO: 3.2
  IL15RA WT/KO: 4.5
  IL15 WT/KO: 4.3
  IRF1 WT/KO: 5.9
  IRF2 WT/KO: 3.5
  IRGM WT/KO: 2.9
  ISG20 WT/KO: 6.1
  KATNA1 WT/KO: 2.1
  LGP2 WT/KO: 2.4
  LHX2 WT/KO: 11.9
  LOC129607 WT/KO: 7.6
  MAFK WT/KO: 3.0
  MARCH5 WT/KO: 2.5
  MOV10 WT/KO: 3.4
  MX1 WT/KO: 20.7
  MX2 WT/KO: 74.3
  NMI WT/KO: 2.9
  NP WT/KO: 2.5
  NT5C3 WT/KO: 3.6
  OAS1B WT/KO: 6.2
  OASL WT/KO: 1.8
  P4HA1 WT/KO: 1.2
  P8 WT/KO: 2.9
  PARP9 WT/KO: 2.8
  PELI1 WT/KO: 1.4
  PGF WT/KO: 1.3
  PLAU WT/KO: 1.7
  PPP1R15A WT/KO: 3.4
  PTX3 WT/KO: 4.0
  PVRL2 WT/KO: 2.1
  PVRL4 WT/KO: 2.1
  REL WT/KO: 2.8
  RGC32 WT/KO: 2.9
  RIPK2 WT/KO: 2.5
  RSAD2 WT/KO: 2.0
  SAP30 WT/KO: 2.4
  SAV1 WT/KO: 1.2
  SDC4 WT/KO: 1.2
  SECTM1 WT/KO: 15.0
  SLC7A2 WT/KO: 2.0
  SOAT1 WT/KO: 1.8
  SOCS1 WT/KO: 16.7
  STAT2 WT/KO: 2.3
  TGTP WT/KO: 38.6
  TLK2 WT/KO: 3.0
  TLR3 WT/KO: 6.8
  TMOD3 WT/KO: 1.5
  TNF WT/KO: 5.0
  TNFRSF11B WT/KO: 0.9
  TNFSF9 WT/KO: 3.0
  TOR1AIP1 WT/KO: 2.4
  TPST1 WT/KO: 1.1
  TREX1 WT/KO: 2.0
  TRIM21 WT/KO: 3.2
  TRIM25 WT/KO: 1.8
  TRIM34 WT/KO: 1.7
  USP18 WT/KO: 11.4
  VCAM1 WT/KO: 2.1
  ZBP1 WT/KO: 3.7
  ZNF313 WT/KO: 2.1
